Among the data in ChEMBL document CHEMBL6177980 (J Med Chem, 2025) are Activity values, retold here.

Active and inactive are the calls of the source. The calls are words filed in the database; no cut-off is given here.

Experiment [1] deals with Severe fever with thrombocytopenia syndrome virus. As to the kind of experiment: In vivo antiviral activity against SFTSV infected in mouse harboring IFNAR1tm1Agt assessed as improvement in lymphocytes percentage treated orally once daily for 7 days. The class given is functional, organism-based. Conditions: dose 2.5-100 mg/kg, route po, time 7.0 day.
The test system is the same in experiment [2]. As to the kind of experiment: In vivo antiviral activity against SFTSV infected in mouse harboring IFNAR1tm1Agt assessed as improvement in lymphocytes percentage at 300 mg/kg, po qd treated for 7 days relative to control. In kind it is functional, organism-based. To be noted: time 7.0 day.

For `CC(C)C(=O)OC[C@@]1(F)O[C@@H](n2ccc(=O)n(COC(=O)c3cccnc3)c2=O)[C@H](OC(=O)C(C)C)[C@@H]1OC(=O)C(C)C`, the Activity entry in experiment [1] is “Dose-dependent-effect”.

Regarding `NC(=O)c1nc(F)cnc1O`, in experiment [2], the result was Active.
